Experimental findings from ChEMBL document CHEMBL1201862, “PubChem BioAssay data set” (2004) are described below.

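96-well plates; 48 h exposure; 5 concentrations. Endpoints by linear interpolation between flanking doses. Not reached: highest tested concentration assigned. The concentration for 50% growth inhibition is given as GI50.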 Activity calls are given as the source filed them. Rule as the data show it: active = GI50 up to about 1.1 µM and inactive = higher.

Some test systems named below: MDA-MB-435; MCF7; LOX IMVI; TK-10; RXF 393; HCT-116; K562; SK-OV-3; MOLT-4; A498; OVCAR-4; UACC-62; SK-MEL-5; EKVX; SR; SK-MEL-2; NCI-H460; T47D; U-251; HCC 2998.
What all share (test): inhibition of tumour cell growth, NCI panel, 48 h

Turning to `CCCCCCCCCCCC[C@@H](O)[C@H]1CC[C@H]([C@H](O)CCCC[C@H](O)CCCCC[C@@H](O)CC2=C[C@H](C)OC2=O)O1`, the GI50 was 1.98 µM (inactive) with MDA-MB-435; 1.64 µM (inactive) in the experiment on MCF7; 1.19 µM (inactive) in the experiment with LOX IMVI; 3.07 µM (inactive) with TK-10; 3.55 µM (inactive) in the experiment on RXF 393; 0.135 µM (active) in the experiment with HCT-116. In addition, the GI50 in the experiment on K562 was 0.213 µM (active); in the experiment with SK-OV-3, 4.03 µM (inactive); in the experiment with MOLT-4, 0.363 µM (active); in the experiment with A498, 3.55 µM (inactive); in the experiment on OVCAR-4, 0.931 µM (active); in the experiment with UACC-62 it was 1.87 µM (inactive). The GI50 in the experiment on SK-MEL-5 is 0.0143 µM (active); in the experiment on EKVX, 0.562 µM (active); with SR it was 2.54 µM (inactive); with SK-MEL-2 it was 0.867 µM (active); in the experiment on NCI-H460, 2.07 µM (inactive); with T47D, 2.39 µM (inactive). For the same compound, the results for the GI50 with U-251 and in the experiment with HCC 2998 were 2.78 µM (inactive) and 3.43 µM (inactive), respectively.
As to `Clc1ccc2c(NCCCCN3OC3c3ccccc3)ccnc2c1` (stereo not given), the GI50 was 4.47 µM (inactive) in the experiment with MDA-MB-435; 4.29 µM (inactive) in the experiment on MCF7; 2.13 µM (inactive) in the experiment with LOX IMVI; 10.3 µM (inactive) with TK-10; 5.55 µM (inactive) in the experiment with RXF 393; 2.06 µM (inactive) in the experiment with HCT-116. For the same compound, the GI50 is 2.44 µM (inactive) with K562; 19.6 µM (inactive) with SK-OV-3; 2.15 µM (inactive) in the experiment with MOLT-4; 8.36 µM (inactive) in the experiment with A498; 4.27 µM (inactive) with OVCAR-4; 14.1 µM (inactive) in the experiment on UACC-62. For the same compound, the GI50 in the experiment with SK-MEL-5 was 4.79 µM (inactive); with EKVX, 21.8 µM (inactive); in the experiment on SR, 1.69 µM (inactive); with SK-MEL-2, 4.79 µM (inactive); with NCI-H460, 6.5 µM (inactive); in the experiment on T47D, 5.53 µM (inactive). The values for the GI50 in the experiment on U-251 and in the experiment with HCC 2998 were 3.4 µM (inactive) and 2.89 µM (inactive), respectively.
As to `CC1(C)CCC2(C(=O)OC3OC(CO)C(O)C(O)C3O)CCC3(CO)C(=CCC4C5(C)CC(O)C(O)C(C)(C(=O)OC6OC(CO)C(O)C(O)C6O)C5CCC43C)C2C1` (stereo not given), the GI50 in the experiment on MDA-MB-435, in the experiment on MCF7, with LOX IMVI, in the experiment on TK-10, in the experiment with RXF 393 and in the experiment on HCT-116 was > 100 µM (inactive) each time. The GI50 with K562, with SK-OV-3, in the experiment with MOLT-4, with A498, in the experiment with OVCAR-4 and in the experiment on UACC-62 was > 100 µM (inactive) throughout. The GI50 is > 100 µM (inactive) in the experiment with SK-MEL-5; > 100 µM (inactive) in the experiment with EKVX; 44.8 µM (inactive) with SR; > 100 µM (inactive) in the experiment on SK-MEL-2; > 100 µM (inactive) with NCI-H460; > 100 µM (inactive) in the experiment on T47D. For the same compound, the GI50 with U-251 and in the experiment on HCC 2998 was > 100 µM (inactive) in each case.
For `COc1ccc(C(C)NNC(=O)c2ccncc2)cc1F` (stereo not given), the GI50 in the experiment with MDA-MB-435, with MCF7, in the experiment on LOX IMVI, in the experiment on TK-10, in the experiment with RXF 393 and with HCT-116 was > 100 µM (inactive) in each case. The GI50 in the experiment with K562, with SK-OV-3, with MOLT-4, in the experiment on A498, in the experiment on OVCAR-4 and in the experiment with UACC-62 was > 100 µM (inactive) in each case. For the same compound, the GI50 in the experiment on SK-MEL-5, in the experiment with EKVX, with SR, in the experiment with SK-MEL-2, in the experiment with NCI-H460 and in the experiment with T47D was > 100 µM (inactive) in each case. The GI50 in the experiment on U-251 and in the experiment with HCC 2998 was > 100 µM (inactive) throughout.
Consider `C[C@@H]1CC[C@@]2(OC1)O[C@H]1C[C@H]3[C@@H]4CC[C@H]5C[C@@H](OC6OC(CO)C(OC7OC(CO)C(O)C(OC8OCC(O)C(O)C8O)C7OC7OC(CO)C(O)C(O)C7O)C(O)C6O)[C@H](O)C[C@]5(C)[C@H]4CC[C@]3(C)[C@H]1[C@@H]2C` (stereo not given in full), for which the GI50 with MDA-MB-435 is 13 µM (inactive); in the experiment on MCF7, 0.804 µM (active); in the experiment on LOX IMVI, 1.39 µM (inactive); in the experiment on TK-10, 4.36 µM (inactive); in the experiment with RXF 393, 9.98 µM (inactive); in the experiment on HCT-116, 3.88 µM (inactive). The GI50 was 2.11 µM (inactive) with K562; 10.8 µM (inactive) in the experiment with SK-OV-3; 11.3 µM (inactive) with MOLT-4; 7.89 µM (inactive) with A498; 1.95 µM (inactive) in the experiment on OVCAR-4; 20 µM (inactive) in the experiment with UACC-62. Besides, the GI50 in the experiment on SK-MEL-5 is 9.84 µM (inactive); with EKVX it was 5.35 µM (inactive); in the experiment on SR it was 14.3 µM (inactive); with SK-MEL-2 it was 9.08 µM (inactive); with NCI-H460, 1.85 µM (inactive); in the experiment on T47D, 5.38 µM (inactive). Also, the GI50 was 3.13 µM (inactive) with U-251 and 12.3 µM (inactive) in the experiment with HCC 2998.
With `CC(=O)O[C@H]1CC[C@@]2(C)C(=CC[C@H]3[C@@H]4C/C(=C\c5ccncc5)[C@H](OC(C)=O)[C@@]4(C)CC[C@@H]32)C1`, the GI50 with MDA-MB-435 was 12.9 µM (inactive); in the experiment with MCF7 it was 14.7 µM (inactive); with LOX IMVI, 3.48 µM (inactive); in the experiment on TK-10, 22.5 µM (inactive); in the experiment on RXF 393, 2.73 µM (inactive); with HCT-116 it was 11.9 µM (inactive). Further, the GI50 in the experiment with K562 was 3.15 µM (inactive); with SK-OV-3 it was 21.6 µM (inactive); with MOLT-4, 3.04 µM (inactive); in the experiment on A498, 12.9 µM (inactive); in the experiment on OVCAR-4 it was 4.65 µM (inactive); in the experiment with UACC-62 it was 13.2 µM (inactive). Besides, the GI50 in the experiment with SK-MEL-5 was 5.47 µM (inactive); with EKVX, 9.55 µM (inactive); in the experiment with SR, 2.7 µM (inactive); in the experiment on SK-MEL-2, 16.7 µM (inactive); in the experiment with NCI-H460, 10.1 µM (inactive); in the experiment with T47D it was 14.2 µM (inactive). Moreover, the results for the GI50 in the experiment with U-251 and in the experiment on HCC 2998 were 10 µM (inactive) and 13.1 µM (inactive), respectively.
For the compound `CC1(C)N=C(N)N=C(N)N1c1cccc(CSc2ccccc2)c1`, the GI50 is 0.0813 µM (active) with MDA-MB-435; 0.597 µM (active) in the experiment on MCF7; 0.103 µM (active) with LOX IMVI; 78.7 µM (inactive) in the experiment on TK-10; 0.169 µM (active) in the experiment on RXF 393; 0.0588 µM (active) in the experiment on HCT-116. Further, the GI50 in the experiment with K562 was 0.774 µM (active); in the experiment on SK-OV-3, 95.3 µM (inactive); in the experiment on MOLT-4, 0.141 µM (active); in the experiment with A498 it was > 100 µM (inactive); in the experiment with OVCAR-4 it was 2.29 µM (inactive); in the experiment with UACC-62 it was 0.192 µM (active). Besides, the GI50 with SK-MEL-5 was 0.212 µM (active); in the experiment on EKVX it was 23 µM (inactive); in the experiment with SR it was < 0.01 µM (active); in the experiment with SK-MEL-2, 18.4 µM (inactive); in the experiment on NCI-H460, 0.0404 µM (active); in the experiment with T47D, 12.9 µM (inactive). Besides, the GI50 is 0.045 µM (active) in the experiment on U-251 and 73.1 µM (inactive) in the experiment with HCC 2998.
In the case of `CCOC(=O)/C=C(\C(=O)OCC)n1ccc(=O)n(CC(=O)OCC)c1=O`, the GI50 in the experiment on MDA-MB-435 was 5.85 µM (inactive); with MCF7, 3.16 µM (inactive); in the experiment with LOX IMVI, 2.11 µM (inactive); with TK-10 it was 2.57 µM (inactive); in the experiment with RXF 393, 1.26 µM (inactive); in the experiment with HCT-116, 1.77 µM (inactive). Moreover, the GI50 is 1.68 µM (inactive) in the experiment with K562; 17.9 µM (inactive) in the experiment with SK-OV-3; 1.43 µM (inactive) in the experiment on MOLT-4; 17.7 µM (inactive) in the experiment with A498; 3.66 µM (inactive) in the experiment with OVCAR-4; 7.36 µM (inactive) with UACC-62. Moreover, the GI50 in the experiment with SK-MEL-5 was 13 µM (inactive); in the experiment with EKVX it was 6.59 µM (inactive); in the experiment on SR, 2.17 µM (inactive); with SK-MEL-2, 14 µM (inactive); with NCI-H460 it was 15.6 µM (inactive); with T47D, 2.44 µM (inactive). Further, the GI50 in the experiment on U-251 is 6.25 µM (inactive); with HCC 2998 it was 16 µM (inactive).
With `CCn1cc(C(=O)O)c(=O)c2cc(F)c(N3CCN(CN4C(=O)/C(=N\NC(=O)c5ccncc5)c5cc(Cl)ccc54)CC3)cc21`, the GI50 in the experiment with MDA-MB-435 is 28.6 µM (inactive); with MCF7, 28.2 µM (inactive); in the experiment on LOX IMVI, 34.3 µM (inactive); with TK-10, 24.7 µM (inactive); in the experiment on RXF 393 it was 19.6 µM (inactive); in the experiment on HCT-116 it was 58.6 µM (inactive). Moreover, the GI50 is 18.7 µM (inactive) in the experiment with K562; 24.9 µM (inactive) with SK-OV-3; 0.048 µM (active) in the experiment on MOLT-4; > 100 µM (inactive) in the experiment with A498; 36.9 µM (inactive) in the experiment on OVCAR-4; 58.7 µM (inactive) with UACC-62. Further, the GI50 was 42.2 µM (inactive) in the experiment on SK-MEL-5; 32.6 µM (inactive) in the experiment with EKVX; 2.34 µM (inactive) in the experiment with SR; 23 µM (inactive) with SK-MEL-2; 52.4 µM (inactive) in the experiment on NCI-H460; 29.4 µM (inactive) with T47D. The GI50 in the experiment with U-251 was 33 µM (inactive); with HCC 2998 it was 36 µM (inactive).
